Experimental data published in patent US8741262B2, “Targeted radiotherapy” (Katholieke Universiteit Leuven, K.U. Leuven R&D, priority 2007, dated 2014).

System: liver radiation-induced fibrosarcoma (RIF-1), RFA-induced necrosis
Assay: Hypericin distribution in liver RIF-1 tumor in mice after radiofrequency ablation, fluoromacroscopy and fluorescence microscopy
Type: in vivo
Conditions: 5 mg/kg iv 24 h after RFA, 3 d after injection
Protocol: The rectangular frame in A and B indicates where micrographs (C and D) were approximately focused. […] Thus, the prolonged retention of hypericin in necrosis matches well the radiation half life of iodine-131 (8 d) or yttrium-90 (64 h), which offers an ideal condition for the present adjuvant anti-cancer radiotherapy with combined use of a small molecule therapeutically labeled NACCs featuring multi-millimeter irradiation penetration (max. range of beta particles in tissue is 2.4 mm for iodine-131 and 12 mm for yttrium-90).

Compound: Cc1cc(O)c2c(=O)c3c(O)cc(O)c4c5c(O)cc(O)c6c(=O)c7c(O)cc(C)c8c1c2c(c34)c(c78)c65 [hypericin]
- Fluorescence microscopy of necrotic tumor regions: can still be detected in RFA-induced necrotic tumor regions (NT)
- Tissue distribution by UV light fluoromacroscopy: almost completely cleared from viable liver (VL) and viable tumor (VT), but is retained only in necrotic tumor (NT) and necrotic liver (NL)
